Laboratory results as given in PubChem BioAssay (NCI).
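Here, GI50 denotes the concentration required for 50% inhibition of growth. TGI denotes the concentration required for complete inhibition of growth.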

Key:
Test in all cases: DTP human tumour cell line panel, 384-well format
CCRF-CEM leukemia = system: CCRF-CEM leukemia
NCI-H322M lung = system: NCI-H322M lung
A549 NSCLC = system: A549 NSCLC
SNB-19 CNS = system: SNB-19 CNS
A498 renal = system: A498 renal
SW-620 colon = system: SW-620 colon
HCT-15 colon = system: HCT-15 colon
DU-145 prostate = system: DU-145 prostate
IGROV1 ovarian = system: IGROV1 ovarian
OVCAR-3 ovarian = system: OVCAR-3 ovarian
SNB-75 CNS = system: SNB-75 CNS
SF-539 CNS = system: SF-539 CNS
MDA-MB-435 melanoma = system: MDA-MB-435 melanoma
UACC-257 melanoma = system: UACC-257 melanoma
HCC-2998 colon = system: HCC-2998 colon
SK-MEL-28 melanoma = system: SK-MEL-28 melanoma
OVCAR-5 ovarian = system: OVCAR-5 ovarian
T-47D breast = system: T-47D breast
HS 578T breast = system: HS 578T breast
SF-295 CNS = system: SF-295 CNS
NCI/ADR-RES ovarian = system: NCI/ADR-RES ovarian
MALME-3M melanoma = system: MALME-3M melanoma
HL-60(TB) leukemia = system: HL-60(TB) leukemia
CAKI-1 renal = system: CAKI-1 renal
COLO 205 colon = system: COLO 205 colon
SF-268 CNS = system: SF-268 CNS
SK-OV-3 ovarian = system: SK-OV-3 ovarian
RXF 393 renal = system: RXF 393 renal
NCI-H23 lung = system: NCI-H23 lung
PC-3 prostate = system: PC-3 prostate
MDA-MB-468 breast = system: MDA-MB-468 breast
UO-31 renal = system: UO-31 renal
NCI-H226 lung = system: NCI-H226 lung
LOX IMVI melanoma = system: LOX IMVI melanoma
ACHN renal = system: ACHN renal
KM12 colon = system: KM12 colon
MOLT-4 leukemia = system: MOLT-4 leukemia
MCF7 breast = system: MCF7 breast
HOP-62 NSCLC = system: HOP-62 NSCLC
M14 melanoma = system: M14 melanoma
TK-10 renal = system: TK-10 renal
UACC-62 melanoma = system: UACC-62 melanoma
NCI-H460 NSCLC = system: NCI-H460 NSCLC
SN12C renal = system: SN12C renal
U251 glioblastoma = system: U251 glioblastoma
OVCAR-4 ovarian = system: OVCAR-4 ovarian
OVCAR-8 ovarian = system: OVCAR-8 ovarian
BT-549 breast = system: BT-549 breast
SK-MEL-5 melanoma = system: SK-MEL-5 melanoma
RPMI-8226 leukemia = system: RPMI-8226 leukemia
NCI-H522 lung = system: NCI-H522 lung
SR leukemia = system: SR leukemia
EKVX NSCLC = system: EKVX NSCLC
HCT-116 colon = system: HCT-116 colon
HOP-92 NSCLC = system: HOP-92 NSCLC
HT29 colon = system: HT29 colon

CC(C)(C)c1cc(NC(=O)Nc2ccc(-c3cn4c(n3)sc3cc(OCCN5CCOCC5)ccc34)cc2)no1
GI50 (CCRF-CEM leukemia): 0.459 µM | TGI (CCRF-CEM leukemia): > 100 µM | GI50 (NCI-H322M lung): 2.99 µM | TGI (NCI-H322M lung): > 100 µM | GI50 (A549 NSCLC): 4.97 µM | TGI (A549 NSCLC): > 100 µM | GI50 (SNB-19 CNS): 3.37 µM | TGI (SNB-19 CNS): > 100 µM | GI50 (A498 renal): 2.11 µM | TGI (A498 renal): 6.48 µM | GI50 (SW-620 colon): > 100 µM | TGI (SW-620 colon): > 100 µM | GI50 (HCT-15 colon): 4.54 µM | TGI (HCT-15 colon): > 100 µM | GI50 (DU-145 prostate): > 100 µM | TGI (DU-145 prostate): > 100 µM | GI50 (IGROV1 ovarian): 4.98 µM | TGI (IGROV1 ovarian): > 100 µM | GI50 (OVCAR-3 ovarian): 3.03 µM | TGI (OVCAR-3 ovarian): > 100 µM | GI50 (SNB-75 CNS): 1.41 µM | TGI (SNB-75 CNS): 4.7 µM | GI50 (SF-539 CNS): 1.08 µM | TGI (SF-539 CNS): 3.17 µM | GI50 (MDA-MB-435 melanoma): > 100 µM | TGI (MDA-MB-435 melanoma): > 100 µM | GI50 (UACC-257 melanoma): 4.09 µM | TGI (UACC-257 melanoma): > 100 µM | GI50 (HCC-2998 colon): > 100 µM | TGI (HCC-2998 colon): > 100 µM | GI50 (SK-MEL-28 melanoma): 12.4 µM | TGI (SK-MEL-28 melanoma): > 100 µM | GI50 (OVCAR-5 ovarian): > 100 µM | TGI (OVCAR-5 ovarian): > 100 µM | GI50 (T-47D breast): 0.094 µM | TGI (T-47D breast): 0.45 µM | GI50 (HS 578T breast): 0.461 µM | TGI (HS 578T breast): 3.74 µM | GI50 (SF-295 CNS): 1.12 µM | TGI (SF-295 CNS): > 100 µM | GI50 (NCI/ADR-RES ovarian): > 100 µM | TGI (NCI/ADR-RES ovarian): > 100 µM | GI50 (MALME-3M melanoma): 1.89 µM | TGI (MALME-3M melanoma): > 100 µM | GI50 (HL-60(TB) leukemia): > 100 µM | TGI (HL-60(TB) leukemia): > 100 µM | GI50 (CAKI-1 renal): 3.68 µM | TGI (CAKI-1 renal): > 100 µM | GI50 (COLO 205 colon): > 100 µM | TGI (COLO 205 colon): > 100 µM | GI50 (SF-268 CNS): 0.584 µM | TGI (SF-268 CNS): 2.55 µM | GI50 (SK-OV-3 ovarian): 1.67 µM | TGI (SK-OV-3 ovarian): > 100 µM | GI50 (RXF 393 renal): 0.184 µM | TGI (RXF 393 renal): 0.571 µM | GI50 (NCI-H23 lung): 0.684 µM | TGI (NCI-H23 lung): > 100 µM | GI50 (PC-3 prostate): 1.63 µM | TGI (PC-3 prostate): > 100 µM | GI50 (MDA-MB-468 breast): 3.17 µM | TGI (MDA-MB-468 breast): 8.59 µM | GI50 (UO-31 renal): > 100 µM | TGI (UO-31 renal): > 100 µM | GI50 (NCI-H226 lung): 3.82 µM | TGI (NCI-H226 lung): > 100 µM | GI50 (LOX IMVI melanoma): 2.38 µM | TGI (LOX IMVI melanoma): > 100 µM | GI50 (ACHN renal): 7.13 µM | TGI (ACHN renal): > 100 µM | GI50 (KM12 colon): 0.559 µM | TGI (KM12 colon): > 100 µM | GI50 (MOLT-4 leukemia): 0.412 µM | TGI (MOLT-4 leukemia): > 100 µM | GI50 (MCF7 breast): 1.04 µM | TGI (MCF7 breast): > 100 µM | GI50 (HOP-62 NSCLC): 1.27 µM | TGI (HOP-62 NSCLC): 3.54 µM

CCc1cnn2c(NCc3ccc[n+]([O-])c3)cc(N3CCCC[C@H]3CCO)nc12
GI50 (M14 melanoma): < 0.01 µM | TGI (M14 melanoma): < 0.01 µM | GI50 (NCI-H322M lung): < 0.01 µM | TGI (NCI-H322M lung): < 0.01 µM | GI50 (A549 NSCLC): < 0.01 µM | TGI (A549 NSCLC): > 100 µM | GI50 (SNB-19 CNS): < 0.01 µM | TGI (SNB-19 CNS): < 0.01 µM | GI50 (A498 renal): < 0.01 µM | TGI (A498 renal): < 0.01 µM | GI50 (HCT-15 colon): < 0.01 µM | TGI (HCT-15 colon): 0.0218 µM | GI50 (DU-145 prostate): < 0.01 µM | TGI (DU-145 prostate): < 0.01 µM | GI50 (IGROV1 ovarian): < 0.01 µM | TGI (IGROV1 ovarian): < 0.01 µM | GI50 (OVCAR-3 ovarian): < 0.01 µM | TGI (OVCAR-3 ovarian): < 0.01 µM | GI50 (SNB-75 CNS): < 0.01 µM | TGI (SNB-75 CNS): < 0.01 µM | GI50 (TK-10 renal): < 0.01 µM | TGI (TK-10 renal): < 0.01 µM | GI50 (UACC-62 melanoma): < 0.01 µM | TGI (UACC-62 melanoma): < 0.01 µM | GI50 (SF-539 CNS): < 0.01 µM | TGI (SF-539 CNS): < 0.01 µM | GI50 (MDA-MB-435 melanoma): < 0.01 µM | TGI (MDA-MB-435 melanoma): < 0.01 µM | GI50 (UACC-257 melanoma): < 0.01 µM | TGI (UACC-257 melanoma): < 0.01 µM | GI50 (HCC-2998 colon): < 0.01 µM | TGI (HCC-2998 colon): < 0.01 µM | GI50 (NCI-H460 NSCLC): < 0.01 µM | TGI (NCI-H460 NSCLC): < 0.01 µM | GI50 (SK-MEL-28 melanoma): < 0.01 µM | TGI (SK-MEL-28 melanoma): < 0.01 µM | GI50 (SN12C renal): < 0.01 µM | TGI (SN12C renal): < 0.01 µM | GI50 (U251 glioblastoma): < 0.01 µM | TGI (U251 glioblastoma): < 0.01 µM | GI50 (OVCAR-5 ovarian): < 0.01 µM | TGI (OVCAR-5 ovarian): < 0.01 µM | GI50 (OVCAR-4 ovarian): < 0.01 µM | TGI (OVCAR-4 ovarian): < 0.01 µM | GI50 (OVCAR-8 ovarian): < 0.01 µM | TGI (OVCAR-8 ovarian): < 0.01 µM | GI50 (BT-549 breast): < 0.01 µM | TGI (BT-549 breast): < 0.01 µM | GI50 (T-47D breast): < 0.01 µM | TGI (T-47D breast): > 100 µM | GI50 (HS 578T breast): < 0.01 µM | TGI (HS 578T breast): < 0.01 µM | GI50 (SF-295 CNS): < 0.01 µM | TGI (SF-295 CNS): > 100 µM | GI50 (SK-MEL-5 melanoma): < 0.01 µM | TGI (SK-MEL-5 melanoma): < 0.01 µM | GI50 (RPMI-8226 leukemia): < 0.01 µM | TGI (RPMI-8226 leukemia): < 0.01 µM | GI50 (NCI/ADR-RES ovarian): 0.0413 µM | TGI (NCI/ADR-RES ovarian): 0.25 µM | GI50 (NCI-H522 lung): < 0.01 µM | TGI (NCI-H522 lung): < 0.01 µM | GI50 (MALME-3M melanoma): < 0.01 µM | TGI (MALME-3M melanoma): < 0.01 µM | GI50 (HL-60(TB) leukemia): < 0.01 µM | TGI (HL-60(TB) leukemia): < 0.01 µM | GI50 (CAKI-1 renal): < 0.01 µM | TGI (CAKI-1 renal): > 100 µM | GI50 (COLO 205 colon): < 0.01 µM | TGI (COLO 205 colon): < 0.01 µM | GI50 (SR leukemia): < 0.01 µM | TGI (SR leukemia): < 0.01 µM | GI50 (SF-268 CNS): < 0.01 µM | TGI (SF-268 CNS): < 0.01 µM | GI50 (SK-OV-3 ovarian): < 0.01 µM | TGI (SK-OV-3 ovarian): > 100 µM | GI50 (RXF 393 renal): < 0.01 µM | TGI (RXF 393 renal): < 0.01 µM | GI50 (EKVX NSCLC): < 0.01 µM | TGI (EKVX NSCLC): < 0.01 µM | GI50 (NCI-H23 lung): < 0.01 µM | TGI (NCI-H23 lung): < 0.01 µM | GI50 (PC-3 prostate): < 0.01 µM | TGI (PC-3 prostate): < 0.01 µM | GI50 (MDA-MB-468 breast): < 0.01 µM | TGI (MDA-MB-468 breast): < 0.01 µM | GI50 (HCT-116 colon): < 0.01 µM | TGI (HCT-116 colon): > 100 µM | GI50 (NCI-H226 lung): < 0.01 µM | TGI (NCI-H226 lung): < 0.01 µM | GI50 (LOX IMVI melanoma): < 0.01 µM | TGI (LOX IMVI melanoma): < 0.01 µM | GI50 (ACHN renal): < 0.01 µM | TGI (ACHN renal): < 0.01 µM | GI50 (KM12 colon): < 0.01 µM | TGI (KM12 colon): > 100 µM | GI50 (MOLT-4 leukemia): < 0.01 µM | TGI (MOLT-4 leukemia): < 0.01 µM | GI50 (MCF7 breast): < 0.01 µM | TGI (MCF7 breast): > 100 µM | GI50 (HOP-92 NSCLC): < 0.01 µM | TGI (HOP-92 NSCLC): > 100 µM | GI50 (HOP-62 NSCLC): < 0.01 µM | TGI (HOP-62 NSCLC): < 0.01 µM | GI50 (HT29 colon): < 0.01 µM | TGI (HT29 colon): < 0.01 µM
